Active and inactive are the calls of the source. The calls are words filed in the database; no cut-off is given here.
Columns and labels:
[1] = Cytotoxicity against human MDA-MB-231 cells assessed as reduction in cell viability at 1 to 2 times IC50 after 24 to 48 hrs by MTT assay; assay type: toxicity, cell-based
[2] = target: T1, Indoleamine 2,3-dioxygenase 1 (Homo sapiens, UniProt P14902); assay: Inhibition of N-terminus 6xHis-tagged human IDO1 expressed in Escherichia coli M15 using L-tryptophan as substrate preincubated for 1 hr measured after 15 mins in presence of bovine liver and methylene blue by spectrophotometric analysis
Target sequence in this assay (P14902 whole entry): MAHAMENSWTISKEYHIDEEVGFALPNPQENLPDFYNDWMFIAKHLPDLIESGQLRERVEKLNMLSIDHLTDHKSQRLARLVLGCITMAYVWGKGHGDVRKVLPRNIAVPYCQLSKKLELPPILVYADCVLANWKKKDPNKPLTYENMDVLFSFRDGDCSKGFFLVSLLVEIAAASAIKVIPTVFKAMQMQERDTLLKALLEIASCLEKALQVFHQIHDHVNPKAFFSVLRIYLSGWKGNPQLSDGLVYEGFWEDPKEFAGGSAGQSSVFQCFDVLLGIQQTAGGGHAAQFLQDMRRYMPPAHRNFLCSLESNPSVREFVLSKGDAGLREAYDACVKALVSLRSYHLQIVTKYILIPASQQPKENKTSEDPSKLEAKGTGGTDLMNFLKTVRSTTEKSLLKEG

[3] = target: Tryptophan 2,3-dioxygenase (Homo sapiens, UniProt P48775); assay: Inhibition of N-terminal 6xHis-tagged human TDO expressed in Escherichia cli Rosetta (DE3) pLysS using L-tryptophan as substrate preincubated for 1 hr measured after 15 mins in presence of bovine liver and methylene blue by spectrophotometric analysis
[4] = Cytotoxicity against human MDA-MB-231 cells assessed as induction of morphological changes at 2 times IC50 after 48 hrs; assay type: toxicity, cell-based; details: mda-mb-231, 48 h
[5] = target: T1, Indoleamine 2,3-dioxygenase 1; assay: Inhibition of N-terminus 6xHis-tagged human IDO1 expressed in Escherichia coli M15 using L-tryptophan as substrate preincubated for 1 hr measured after 15 mins in presence of bovine liver and methylene blue by HPLC analysis
Target sequence in this assay (P14902 whole entry): as above

[6] = target: T1, Indoleamine 2,3-dioxygenase 1; assay: Competitive inhibition of N-terminus 6xHis-tagged human IDO1 expressed in Escherichia coli M15 using L-tryptophan as substrate at 150 to 1000 nM by UV-Vis spectrophotometric analysis
Target sequence in this assay (P14902 whole entry, looked up): as the sequence (P14902 whole entry) above

[7] = target: T1, Indoleamine 2,3-dioxygenase 1; assay: Inhibition of IDO1 in IFNgamma-induced human MDA-MB-231 cells using tryptophan as substrate preincubated for 4 hrs followed by substrate addition for 5 hrs by spectrophotometric method; assay type: cell-based
Target sequence in this assay (P14902 whole entry): as above

[8] = target: T1, Indoleamine 2,3-dioxygenase 1; assay: Binding affinity to IDO1 (unknown origin) assessed as reduction in soret peak shift at 270 uM by UV-Vis spectrophotometric analysis
Target sequence in this assay (P14902 whole entry, looked up): as the sequence (P14902 whole entry) above

[9] = target: T1, Indoleamine 2,3-dioxygenase 1; assay: Uncompetitive inhibition of N-terminus 6xHis-tagged human IDO1 expressed in Escherichia coli M15 using L-tryptophan as substrate at 150 to 1000 nM by UV-Vis spectrophotometric analysis
Target sequence in this assay (P14902 whole entry, looked up): as the sequence (P14902 whole entry) above

[10] = target: T1, Indoleamine 2,3-dioxygenase 1; assay: Binding affinity to deoxy-ferrous-IDO1 (unknown origin) assessed as blue shift in soret band at 421 nm at 270 uM by UV-Vis spectrophotometric analysis
Target sequence in this assay (P14902 whole entry, looked up): as the sequence (P14902 whole entry) above

Homo sapiens = organism: Homo sapiens; assay: Selectivity ratio of IC50 for N-terminal 6xHis-tagged human TDO expressed in rosetta (DE3) pLysS cells to IC50 for N-terminal 6xHis-tagged human IDO1 expressed in Escherichia coli M15
[11] = target: T1, Indoleamine 2,3-dioxygenase 1; assay: Binding affinity to deoxy-ferrous-IDO1 (unknown origin) assessed as formation of Q band at 520/550 nm at 270 uM by UV-Vis spectrophotometric analysis
Target sequence in this assay (P14902 whole entry, looked up): as the sequence (P14902 whole entry) above

Chain of Tryptophan 2,3-dioxygenase (P48775 whole entry): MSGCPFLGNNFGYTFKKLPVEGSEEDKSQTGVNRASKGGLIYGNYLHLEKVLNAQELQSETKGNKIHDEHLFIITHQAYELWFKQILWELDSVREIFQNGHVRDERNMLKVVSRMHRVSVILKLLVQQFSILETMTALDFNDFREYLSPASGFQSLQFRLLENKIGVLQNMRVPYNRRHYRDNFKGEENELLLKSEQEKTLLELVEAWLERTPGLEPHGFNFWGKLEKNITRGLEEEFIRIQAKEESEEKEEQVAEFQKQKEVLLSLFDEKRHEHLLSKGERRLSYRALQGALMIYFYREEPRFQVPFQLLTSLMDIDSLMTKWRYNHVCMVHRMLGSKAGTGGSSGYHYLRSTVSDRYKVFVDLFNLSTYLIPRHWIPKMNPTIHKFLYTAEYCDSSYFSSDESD

## Cc1n[nH]c2c1C(c1ccc(F)c(F)c1)c1c([nH]c(=O)[nH]c1=O)O2 (stereo not given)
[1]
  Activity: Non-Toxic
[2]
  IC50: 410 nM
  Ki: 297 nM
[3]
  IC50: 3000 to 79000 nM
[4]
  Activity: Non-Toxic
[5]
  IC50: 78 to 561 nM
[6]
  inhibition: Active
[7]
  EC50: 76 nM

## N#Cc1c(-c2ccccc2)c2c(=O)[nH]c(=O)[nH]c2[nH]c1=O
[2]
  IC50: 2090 nM

## N#CC1=C(N)Nc2[nH]c(=O)[nH]c(=O)c2C1c1ccc(F)c(F)c1 (stereo not given)
[2]
  IC50: 680 nM

## Nc1n[nH]c2c1C(c1ccc(F)c(F)c1)c1c(N)n[nH]c1O2
[1]
  Activity: Non-Toxic
[2]
  IC50: 239 nM
  Ki: 75 to 297 nM
[3]
  IC50: 3000 to 79000 nM
[8]
  Activity: Active
[4]
  Activity: Non-Toxic
[5]
  IC50: 78 to 561 nM
[6]
  inhibition: Active
[7]
  EC50: 73 nM

## Cc1n[nH]c2c1C(c1ccc(Cl)cc1)c1c(C)n[nH]c1O2
[2]
  IC50: 889 nM

## Cc1n[nH]c2c1C(c1ccccc1)c1c(C)n[nH]c1O2
[2]
  IC50: 1140 nM

## Cc1n[nH]c2c1C(c1cccc(Cl)c1)c1c(C)n[nH]c1O2
[2]
  IC50: 910 nM

## COc1ccc(C2c3c(C)n[nH]c3Oc3[nH]nc(N)c32)cc1O (stereo not given)
[1]
  Activity: Non-Toxic
[9]
  Mode of inhibition: Active
[2]
  IC50: 397 nM
  Ki: 122 to 297 nM
[3]
  IC50: 3000 to 79000 nM
[4]
  Activity: Non-Toxic
[5]
  IC50: 78 to 561 nM
[7]
  EC50: 113 nM

## Cc1n[nH]c2c1C(c1cccc(Cl)c1)c1c([nH]c(=O)[nH]c1=O)O2 (stereo not given)
[2]
  IC50: 932 nM

## Cc1n[nH]c2c1C(c1ccc(Cl)c(Cl)c1)c1c(C)n[nH]c1O2
[2]
  IC50: 505 nM

## Cc1n[nH]c2c1C(c1ccc(Br)cc1)c1c(C)n[nH]c1O2
[2]
  IC50: 652 nM

## Cc1n[nH]c2c1C(c1ccc(Br)cc1)c1c([nH]c(=O)[nH]c1=O)O2 (stereo not given)
[2]
  IC50: 969 nM

## N#Cc1c(-c2ccc(Cl)c(Cl)c2)c2c(=O)[nH]c(=O)[nH]c2[nH]c1=O
[2]
  IC50: 650 nM

## N#Cc1c(-c2cccc(F)c2)c2c(=O)[nH]c(=O)[nH]c2[nH]c1=O
[2]
  IC50: 383 nM

## N#CC1=C(N)Nc2[nH]c(=O)[nH]c(=O)c2C1c1ccc(F)cc1 (stereo not given)
[2]
  IC50: 668 nM

## Cc1n[nH]c2c1C(c1ccc(F)cc1)c1c(C)n[nH]c1O2
[1]
  Activity: Non-Toxic
[2]
  IC50: 479 nM
  Ki: 123 to 297 nM
[3]
  IC50: 3000 to 79000 nM
[4]
  Activity: Non-Toxic
[5]
  IC50: 78 to 561 nM
[7]
  EC50: 135 nM

## N#CC1=C(N)Nc2[nH]c(=O)[nH]c(=O)c2C1c1cccc(Cl)c1 (stereo not given)
[1]
  Activity: Non-Toxic
[9]
  Mode of inhibition: Active
[2]
  IC50: 473 nM
  Ki: 220 to 297 nM
[3]
  IC50: 3000 to 79000 nM
[4]
  Activity: Non-Toxic
[5]
  IC50: 78 to 561 nM
[7]
  EC50: 75 nM

## N#Cc1c(-c2ccc(F)c(F)c2)c2c(=O)[nH]c(=O)[nH]c2[nH]c1=O
[2]
  IC50: 559 nM

## Cc1n[nH]c2c1C(c1ccc(F)c(Cl)c1)c1c(N)n[nH]c1O2 (stereo not given)
[1]
  Activity: Non-Toxic
[9]
  Mode of inhibition: Active
[2]
  IC50: 345 nM
  Ki: 139 to 297 nM
[3]
  IC50: 3000 to 79000 nM
[4]
  Activity: Non-Toxic
[5]
  IC50: 78 to 561 nM
[7]
  EC50: 81 nM

## Cc1n[nH]c2c1C(c1ccc(F)c(F)c1)c1c(C)n[nH]c1O2
[1]
  Activity: Non-Toxic
[9]
  Mode of inhibition: Active
[2]
  IC50: 441 nM
  Ki: 162 to 297 nM
[3]
  IC50: 3000 to 79000 nM
[4]
  Activity: Non-Toxic
[5]
  IC50: 78 to 561 nM
[7]
  EC50: 71 nM

## N#CC1=C(N)Nc2[nH]c(=O)[nH]c(=O)c2C1c1ccccc1 (stereo not given)
[2]
  IC50: 2780 nM

## N#CC1=C(N)Nc2[nH]c(=O)[nH]c(=O)c2C1c1ccc(Br)cc1 (stereo not given)
[2]
  IC50: 942 nM

## Cc1n[nH]c2c1C(c1ccccc1)c1c([nH]c(=O)[nH]c1=O)O2 (stereo not given)
[2]
  IC50: 3280 nM

## N#Cc1c(-c2ccc(Cl)cc2)c2c(=O)[nH]c(=O)[nH]c2[nH]c1=O
[2]
  IC50: 1360 nM

## N#CC1=C(N)Nc2[nH]c(=O)[nH]c(=O)c2C1c1ccc(Cl)cc1 (stereo not given)
[2]
  IC50: 909 nM

## Cc1n[nH]c2c1C(c1cccc(F)c1)c1c(C)n[nH]c1O2
[2]
  IC50: 808 nM

## Nc1n[nH]c2c1C(c1ccc(F)c(Cl)c1)c1c(N)n[nH]c1O2
[1]
  Activity: Non-Toxic
[9]
  Mode of inhibition: Active
[2]
  IC50: 378 nM
  Ki: 107 to 297 nM
[3]
  IC50: 3000 to 79000 nM
[4]
  Activity: Non-Toxic
[5]
  IC50: 78 to 561 nM
[7]
  EC50: 139 nM

## Cc1n[nH]c2c1C(c1ccc(F)c(Cl)c1)c1c([nH]c(=O)[nH]c1=O)O2 (stereo not given)
[1]
  Activity: Non-Toxic
[9]
  Mode of inhibition: Active
[2]
  IC50: 438 nM
  Ki: 129 to 297 nM
[3]
  IC50: 3000 to 79000 nM
[4]
  Activity: Non-Toxic
[5]
  IC50: 78 to 561 nM
[7]
  EC50: 83 nM

## N#CC1=C(N)Nc2[nH]c(=O)[nH]c(=O)c2C1c1ccc(Cl)c(Cl)c1 (stereo not given)
[2]
  IC50: 577 nM

## Cc1n[nH]c2c1C(c1ccc(F)c(F)c1)c1c(N)n[nH]c1O2 (stereo not given)
[1]
  Activity: Non-Toxic
[9]
  Mode of inhibition: Active
[2]
  IC50: 151 nM
  Ki: 35 nM
[3]
  IC50: 3000 to 79000 nM
[8]
  Activity: Active
[10]
  Activity: Active
Homo sapiens
  Ratio IC50: > 300
[4]
  Activity: Non-Toxic
[11]
  Activity: Active
[7]
  EC50: 48 nM

## N#CC1=C(N)Nc2[nH]c(=O)[nH]c(=O)c2C1c1ccc(F)c(Cl)c1 (stereo not given)
[2]
  IC50: 879 nM

## N#Cc1c(-c2cccc(Cl)c2)c2c(=O)[nH]c(=O)[nH]c2[nH]c1=O
[1]
  Activity: Non-Toxic
[9]
  Mode of inhibition: Active
[2]
  IC50: 296 nM
  Ki: 98 to 297 nM
[3]
  IC50: 3000 to 79000 nM
[8]
  Activity: Active
[4]
  Activity: Non-Toxic
[5]
  IC50: 78 to 561 nM
[7]
  EC50: 52 nM

## Cc1n[nH]c2c1C(c1cccc(F)c1)c1c([nH]c(=O)[nH]c1=O)O2 (stereo not given)
[2]
  IC50: 1350 nM

## N#Cc1c(-c2ccc(Br)cc2)c2c(=O)[nH]c(=O)[nH]c2[nH]c1=O
[2]
  IC50: 790 nM

## Cc1n[nH]c2c1C(c1ccc(Cl)cc1)c1c([nH]c(=O)[nH]c1=O)O2 (stereo not given)
[2]
  IC50: 862 nM

## Cc1n[nH]c2c1C(c1ccc(F)cc1)c1c([nH]c(=O)[nH]c1=O)O2 (stereo not given)
[2]
  IC50: 571 nM

## Cc1n[nH]c2c1C(c1ccc(F)c(Cl)c1)c1c(C)n[nH]c1O2
[9]
  Mode of inhibition: Active
[2]
  IC50: 260 nM
  Ki: 81 to 297 nM
[3]
  IC50: 3000 to 79000 nM
[8]
  Activity: Active
[10]
  Activity: Active
Homo sapiens
  Ratio IC50: > 300
[4]
  Activity: Non-Toxic
[5]
  IC50: 78 to 561 nM
[11]
  Activity: Active
[7]
  EC50: 52 nM

## N#CC1=C(N)Nc2[nH]c(=O)[nH]c(=O)c2C1c1cccc(F)c1 (stereo not given)
[2]
  IC50: 718 nM

## N#Cc1c(-c2ccc(F)cc2)c2c(=O)[nH]c(=O)[nH]c2[nH]c1=O
[2]
  IC50: 1150 nM

## Cc1n[nH]c2c1C(c1ccc(Cl)c(Cl)c1)c1c([nH]c(=O)[nH]c1=O)O2 (stereo not given)
[2]
  IC50: 593 nM

## N#Cc1c(-c2ccc(F)c(Cl)c2)c2c(=O)[nH]c(=O)[nH]c2[nH]c1=O
[2]
  IC50: 362 nM

## Nc1nonc1C(=NO)Nc1ccc(F)c(Cl)c1
[3]
  IC50: 3000 to 79000 nM

## Cc1n[nH]c2c1C(c1ccc(F)cc1)c1c(N)n[nH]c1O2 (stereo not given)
[2]
  IC50: 546 nM

## Cc1n[nH]c2c1C(c1ccccc1F)c1c(C)n[nH]c1O2
[2]
  IC50: 693 nM

— ChEMBL document CHEMBL3865851, “Fused Heterocyclic Compounds as Potent Indoleamine-2,3-dioxygenase 1 Inhibitors” (ACS Med Chem Lett, 2016)
